The supplement of paper PMC10307832

What was measured:
Test in all cases: relative viability (nuclei count vs DMSO), 5 days (fraction); higher = more cells survive
[1] = compound: CN(C)CC1=CC(=CC=C1)N=C(C2=CC=CC=C2)C3=C(NC4=C3C=CC(=C4)C(=O)N(C)C)O + CC(C)C[C@H](NC(=O)[C@H](Cc1ccccc1)NC(=O)c1cnccn1)B(O)O [Bortezomib] (partner 0.002 µM)
Procedure, shortened: (§1)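 Lung cancer cell lines, seeded in 1536-well plates, were treated the following day by pin tool with a single drug or with five library-drug doses (not always all listed) in √10 steps on top of a fixed anchor-drug dose. Cells were fixed and nuclei stained in one step after 5 days, and nuclei were counted. Relative viability is the nuclei count for treated wells divided by that for vehicle wells, reported as medians of duplicate plates.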

[2] = compound: CN(C)CC1=CC(=CC=C1)N=C(C2=CC=CC=C2)C3=C(NC4=C3C=CC(=C4)C(=O)N(C)C)O + CC1(C)CCC(c2ccc(Cl)cc2)=C(CN2CCN(c3ccc(C(=O)NS(=O)(=O)c4ccc(N[C@H](CCN5CCOCC5)CSc5ccccc5)c(S(=O)(=O)C(F)(F)F)c4)cc3)CC2)C1 [Navitoclax] (partner 0.5 µM)
Procedure, shortened: as §1

[3] = compound: CN(C)CC1=CC(=CC=C1)N=C(C2=CC=CC=C2)C3=C(NC4=C3C=CC(=C4)C(=O)N(C)C)O + CCNC(=O)c1noc(-c2cc(C(C)C)c(O)cc2O)c1-c1ccc(CN2CCOCC2)cc1 [Luminespib] (partner 0.01 µM)
Procedure, shortened: as §1

[4] = compound: CN(C)CC1=CC(=CC=C1)N=C(C2=CC=CC=C2)C3=C(NC4=C3C=CC(=C4)C(=O)N(C)C)O + Cc1nc(Nc2ncc(C(=O)Nc3c(C)cccc3Cl)s2)cc(N2CCN(CCO)CC2)n1 [Dasatinib] (partner 0.075 µM)
Procedure, shortened: as §1

Row | Cell Line | relative viability ([1]; first compound 0.08 µM) | relative viability ([1]; first compound 0.253 µM) | relative viability ([1]; first compound 0.8 µM) | relative viability ([1]; first compound 2.53 µM) | relative viability ([1]; first compound 8 µM) | relative viability ([2]; first compound 0.08 µM) | relative viability ([2]; first compound 0.253 µM) | relative viability ([2]; first compound 0.8 µM) | relative viability ([2]; first compound 2.53 µM) | relative viability ([2]; first compound 8 µM) | relative viability ([3]; first compound 0.08 µM) | relative viability ([3]; first compound 0.253 µM) | relative viability ([3]; first compound 0.8 µM) | relative viability ([3]; first compound 2.53 µM) | relative viability ([3]; first compound 8 µM) | relative viability ([4]; first compound 0.08 µM) | relative viability ([4]; first compound 0.253 µM) | relative viability ([4]; first compound 0.8 µM) | relative viability ([4]; first compound 2.53 µM) | relative viability ([4]; first compound 8 µM)
1 | PC-3 [JPC-3] | 0.856 | 0.826 | 0.759 | 0.886 | 0.866 | 0.787 | 0.703 | 0.643 | 0.84 | 0.843 | 0.705 | 0.69 | 0.707 | 0.751 | 0.695 | 1.01 | 1.03 | 0.911 | 0.914 | 0.992
2 | PC-14 | 0.989 | 0.839 | 0.89 | 0.767 | 1.06 | 1.08 | 1.03 | 0.965 | 1.03 | 1.07 | 0.206 | 0.131 | 0.146 | 0.145 | 0.102 | 0.289 | 0.273 | 0.324 | 0.247 | 0.197
3 | RERF-LC-KJ | 1.36 | 1.12 | 1.07 | 1.01 | 1.02 | 1.06 | 0.645 | 0.833 | 1.03 | 0.866 | 1.34 | 1.4 | 1.25 | 1.13 | 1.23 | 0.931 | 0.831 | 0.876 | 0.749 | 0.793
4 | SK-LU-1 | 0.94 | 1.17 | 1.16 | 1.13 | 1.01 | 1.05 | 0.898 | 0.778 | 0.651 | 0.791 | 0.226 | 0.191 | 0.21 | 0.188 | 0.225 | 0.185 | 0.199 | 0.188 | 0.196 | 0.163
5 | SW 1573 | 1.04 | 1.16 | 1.06 | 0.946 | 0.94 | 1.01 | 0.822 | 0.844 | 0.906 | 1.01 | 0.162 | 0.269 | 0.207 | 0.296 | 0.183 | 0.538 | 0.794 | 0.589 | 0.436 | 0.383
6 | UMC-11 | 0.744 | 0.645 | 0.725 | 0.577 | 0.698 | 0.357 | 0.269 | 0.264 | 0.328 | 0.32 | 0.982 | 0.941 | 1.08 | 0.974 | 0.821 | 0.507 | 0.414 | 0.45 | 0.445 | 0.407
